PubChem BioAssay (NCI)
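Five compound concentrations were applied to cells in 96-well plates for 48 hours; endpoints were derived by simple linear interpolation of the resulting dose-response curve. At the GI50, growth is halved. At the TGI there is no net growth.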

Assays:
Assay in all cases: inhibition of tumour cell growth, NCI panel, 48 h
A498 renal = system: A498 renal
CCRF-CEM leukemia = system: CCRF-CEM leukemia
K-562 leukemia = system: K-562 leukemia
MOLT-4 leukemia = system: MOLT-4 leukemia
OVCAR-3 ovarian = system: OVCAR-3 ovarian
SK-MEL-2 melanoma = system: SK-MEL-2 melanoma
SNB-19 CNS = system: SNB-19 CNS
UACC-62 melanoma = system: UACC-62 melanoma
LXFL 529 NSCLC = system: LXFL 529 NSCLC
SNB-78 CNS = system: SNB-78 CNS

| Compound | GI50 (A498 renal) [nM] | TGI (A498 renal) [µM] | GI50 (CCRF-CEM leukemia) [nM] | TGI (CCRF-CEM leukemia) [µM] | GI50 (K-562 leukemia) [nM] | TGI (K-562 leukemia) [µM] | GI50 (MOLT-4 leukemia) [nM] | TGI (MOLT-4 leukemia) [µM] | GI50 (OVCAR-3 ovarian) [nM] | TGI (OVCAR-3 ovarian) [µM] | GI50 (SK-MEL-2 melanoma) [nM] | TGI (SK-MEL-2 melanoma) [µM] | GI50 (SNB-19 CNS) [nM] | TGI (SNB-19 CNS) [µM] | GI50 (UACC-62 melanoma) [nM] | TGI (UACC-62 melanoma) [µM] | TGI (LXFL 529 NSCLC) [µM] | TGI (SNB-78 CNS) [µM] |
| --- | --- | --- | --- | --- | --- | --- | --- | --- | --- | --- | --- | --- | --- | --- | --- | --- | --- | --- |
| O=C(/C=C/C=C/c1ccc2c(c1)OCO2)N/N=C\c1ccc(O)cc1O | 2070 | 7.15 | 559 | 17.9 | 2830 | > 100 | 1410 | 18.8 | 345 | 12.8 | 5510 | 27 | 2790 | 24.2 | 1630 | 7.08 | – | – |
| CCOc1ccc2c(c1)C(=O)c1c-2n(CCCN=[N+]=[N-])c(=O)c2cc([N+](=O)[O-])ccc12 | 18500 | 58.7 | 442 | 2.79 | 17200 | > 100 | 1960 | 20.8 | 20000 | > 100 | 14400 | 38.2 | 4140 | 85.5 | 2890 | 24.1 | – | – |
| COc1ncc(-c2ccc3nccc(C#CCCCCC(=O)NO)c3c2)cc1NS(=O)(=O)c1ccc(F)cc1F | 30.3 | 0.0962 | 105 | 5.65 | 1980 | 16.7 | 62.2 | 1.42 | 65.1 | 2.52 | 106 | 1.77 | 147 | 5.98 | < 19.5 | – | – | – |
| Cc1cc(C)c(/C=N/NS(=O)(=O)c2ccccc2)c(C)c1 | – | > 100 | – | > 100 | – | > 100 | – | > 100 | – | > 100 | – | > 100 | – | – | – | > 100 | > 100 | > 100 |
| Cc1[nH]nc(C(=O)N/N=C/c2ccccc2Cl)c1N=NN(C)C | – | > 100 | – | > 100 | – | > 100 | – | > 100 | – | > 100 | – | > 100 | – | > 100 | – | > 100 | – | – |
| C=CC(=O)N1CCC[C@@H](n2nc(-c3ccc(Oc4ccccc4)cc3)c3c(N)ncnc32)C1 | 460 | > 5.51 | > 10000 | > 10 | > 10000 | > 10 | > 5290 | > 10 | > 6800 | > 10 | > 10000 | > 10 | > 10000 | > 10 | > 4220 | > 10 | – | – |
| CC[C@@H](C)/C=C(C)/C=C/C(=O)c1c(O)c(-c2ccc(O)cc2)cn(OC2CC(=O)CCC(C)OC(=O)CC2O)c1=O (stereo partly specified) | 1980 | 24 | 163 | 12.6 | 386 | > 47.9 | 225 | 12.1 | 284 | 14.1 | 489 | 15.6 | 554 | 14.9 | 279 | 1.15 | – | – |
| CCc1ccccc1NC(=O)C(=O)C1C(=O)N(c2ccccc2)N=C1N (stereo unspecified) | – | > 100 | – | – | – | > 100 | – | > 100 | – | > 100 | – | > 100 | – | > 100 | – | > 100 | > 100 | > 100 |
| Cn1c(=O)c(Oc2ccc(F)cc2F)cc2cnc(NCC(C)(C)O)nc21 | > 25000 | > 25 | > 25000 | > 25 | > 25000 | > 25 | > 25000 | > 25 | > 25000 | > 25 | > 25000 | > 25 | > 25000 | > 25 | > 25000 | > 25 | – | – |
| CC[C@@]1(O)C(=O)OCc2c1cc1n(c2=O)Cc2c-1nc1cc(F)c(C)c3c1c2[C@@H](NC(=O)CO)CC3 | < 11 | 0.0516 | < 10 | > 100 | 19.3 | > 100 | < 10 | > 100 | 60.3 | 1.65 | 318 | 2.63 | < 10 | 2.53 | < 10 | 0.117 | – | – |
| Fc1ccc(Nc2nc3nonc3nc2Nc2ccc(I)cc2)cc1 | 227 | 0.708 | 220 | 4.47 | 181 | 11 | 219 | 0.75 | 319 | 14.1 | 213 | 0.617 | 275 | 15.9 | 142 | 2.16 | – | – |
| CC1(C)C(CC(=O)O)CCCC1CC(=O)O (stereo unspecified) | – | > 100 | – | > 100 | – | > 100 | – | > 100 | – | > 100 | – | > 100 | – | > 100 | – | > 100 | – | – |
| O=C(Nc1cccc(-n2cc(-c3ccncc3)c(-c3ccc(Cl)c(O)c3)n2)c1)Nc1ccc(Cl)c(Cl)c1 | 940 | 3.17 | 1030 | > 32.5 | 1410 | > 32.5 | 1380 | > 32.5 | 1050 | 3.15 | 1030 | 2.64 | 1460 | > 32.5 | 1110 | 5.21 | – | – |
| COCCn1c2c([n+](Cc3cnccn3)c1C)C(=O)c1ccccc1C2=O | 98.7 | 0.573 | 20.7 | 0.345 | < 10 | 5.6 | < 10 | 0.034 | < 10 | < 0.01 | < 10 | 0.0127 | < 10 | 0.0153 | 18.5 | 0.0454 | – | – |
| Cc1cc(C)nc(NS(=O)(=O)c2ccc(NC(=O)COC(=O)c3cccc4c(=O)c5ccccc5[nH]c34)cc2)n1 | – | > 100 | – | 87.7 | – | 98.8 | – | 84.8 | – | 51.4 | – | – | – | 77.2 | – | 34.3 | > 100 | > 100 |
| CCOC(=O)C(=O)C(C#N)c1ccc(Cl)cc1 (stereo unspecified) | – | > 100 | – | – | – | > 100 | – | > 100 | – | > 100 | – | > 100 | – | > 100 | – | > 100 | > 100 | > 100 |
